Entries after “also recorded” stand apart in the source; their conditions may differ. Positions of bridges follow the written chain, without caps; N, C: chain ends. Non-standard residues stand in square brackets, D forms with d. Residues, ends and D or L forms follow the SMILES beside them.
Legend:
Format in all cases: cell-based, Influenza A virus A/California/04/2009 (H1N1)
[1] = molecular target: full length, membrane-bound H1 HA (Influenza A virus, UniProt C3W5S1)
full-length H1 HA I375F = full-length H1 HA I375F (Influenza A virus, UniProt C3W5S1, I389F)
full-length H1 HA I463V = full-length H1 HA I463V (Influenza A virus, UniProt C3W5S1, I477V)

Q: For `CC(C)C[C@@H]1NC(=O)[C@H](C(C)C)NC(=O)[C@@H](Cc2ccc(O)cc2)NC(=O)CSC[C@@H](C(=O)NCC(N)=O)NC(=O)[C@H](C(C)C)NC(=O)[C@H](Cc2c[nH]c3ccccc23)NC(=O)[C@H](Cc2c[nH]cn2)NC(=O)[C@H]([C@@H](C)O)NC(=O)[C@H](C)NC(=O)[C@H](CC(C)C)NC(=O)[C@H]([C@@H](C)O)NC(=O)CNC(=O)[C@H](Cc2c[nH]cn2)NC(=O)[C@H](CC(=O)O)NC(=O)[C@H](Cc2c[nH]c3ccccc23)NC(=O)[C@H](CCCNC(=N)N)NC(=O)[C@H](Cc2ccccc2)NC1=O` [S5] ({CH2CO}-[dY]VLFRWDHGTLATHWVCG-NH2; thioether N-17), which “Competition with mAb Fi6 staining” value [1] is on record?
A: strongly decreased the staining; also recorded: competed with the binding of mAb Fi6

Q: What about the “Binding of biotinylated S5 to cell-surface H1” value (full-length H1 HA I375F) of the same molecule?
A: hinders binding; also recorded: affected by the I375F substitution

Q: What about the “Binding of biotinylated S5 to cell-surface H1” value (full-length H1 HA I463V) of the same molecule?
A: not by the I463V substitution

Reference: publication PMC9486808 (ACS Chemical Biology, 2022)
